According to PMC8158701, “Characterization of the CYP3A4 Enzyme Inhibition Potential of Selected Flavonoids” (Molecules, 2021):
Where two headings read alike, the source gives them in different places.

Key:
[1] = target: T1, CYP3A4 (Homo sapiens, UniProt P08684); test: CYP3A4 inhibition and inactivation kinetics, nifedipine oxidation as marker reaction
Experimental: Enzyme incubations were performed in triplicate, with mechanical stirring in a water bath at 37 °C. Aliquots of flavonoids with a final concentration of 1 μM were dissolved in methanol, transferred to glass tubes, and evaporated to dryness, except in control samples without the inhibitor (flavonoid). After the evaporation of the solvent, an incubation mixture was prepared to a volume of 100 μL, consisting of 5 pmol CYP3A4 enzyme, 50 mM potassium phosphate buffer (pH 7.4), and ultrapure water. An NADPH generating system composed of 0.1 M G6P: 10 mg/mL NADP^+: 1000 IU/mL G6PDH = 50:25:1 (v/v/v) was prepared immediately before use. This generating system contains glucose-6-phosphate dehydrogenase that regenerates NADP^+ into NADPH, keeping the concentration of the cytochrome P450 coenzyme (NADPH) constant in the incubation. The addition of the generating system (15% of the volume in the final incubation, v/v) started the reaction. Nifedipine was used to test out the residual enzyme activity at a final concentration of 200 μM. The reaction was stopped using 1 mL of ice-cold 1% solution of formic acid in dichloromethane. The samples were mixed, then centrifuged for 10 min on 1900g (Rotofix 32, Westfalia, Germany). After centrifugation, two layers were formed (water and organic layer). 850 µL of the organic layer was transferred to cuvettes and evaporated. The analyte was then dissolved in 30 µL of methanol. An Agilent Zorbax SB C18 column (4.6 × 250 mm, 3 μm, Agilent Technologies, Santa Clara, CA, USA) was used to analyze the samples by HPLC. The mobile phase was composed of methanol and water in a ratio of 64:36. The analysis was isocratic. The flow was set at 1.0 mL min^−1. The injection volume was set at 10 µL. Nifedipine was used as a marker substrate. The reaction observed was the oxidation of nifedipine. Chromatograms were recorded at 254 nm. The duration of the analysis was set at 25 min. The retention time of nifedipine is 7.1 min and that of oxidized nifedipine is 10.8 min [42]. […] For all the flavonoids, half maximal inhibitory concentration (IC50), constant of inhibition (Ki), constant of inactivation speed (kinact), and inactivation efficacy (kinact/Ki) were determined.
A one-sided t-test would be used to assess the statistical significance in the differences between samples and controls, based on measurements of residual activity. A nonlinear equation was used to calculate the IC50 value. The Michaelis-Menten equation was used to determine the inactivation constant and the inactivation rate of the inhibitor. Statistical processing and graph preparations were done using Program R (The R Project for Statistical Computing, Vienna, Austria) and Microsoft Excel (Microsoft, Redmond, WA, USA).

[2] = target: T1, CYP3A4; set-up: purchased Thermo Fisher Scientific (Waltham, MA, USA); host or cells: baculosomes (baculovirus-infected insect cell microsomes); conditions: cited from earlier work; for inhibition of CYP3A4: 1 µM concentration, testosterone as marker substrate; for IC50 / Ki / kinact / kinact/Ki: testosterone (TSN) as marker substrate
[3] = combination treatment of apigenin and paclitaxel in vivo; cited from earlier work
[4] = set-up: method as in PMID 17093006; conditions: rats, chrysin 20–100 µM; cited from earlier work
[5] = target: T1, CYP3A4; test: Pseudo-irreversible inhibition assay (incubation, dialysis with or without potassium hexacyanoferrate, testosterone marker); type: biochemical; set-up: purchased Thermo Fisher Scientific (Waltham, MA, USA); host or cells: baculosomes (baculovirus-infected insect cell microsomes); conditions: after incubation and dialysis (Figure 4)
Experimental: The aim of this assay is to test out the formation of covalent complexes with ferrous iron (Fe^2+), by assessing a recovery of enzyme activity after dialysis with or without the addition of an oxidant. Three types of experiments were performed for each flavonoid: incubation mixture without flavonoids (control), incubation mixture with flavonoid, and incubation mixture with flavonoid to which oxidant was added after incubation. Each incubation with the inhibitor was performed for 30 min using the same experimental settings as described above (Section 4.2.1). After incubation, the samples were transferred to dialysis cartridges. Aa oxidant—20 mM solution of potassium hexacyanoferrate was added to one of the incubations before dialysis. The cassettes (Slide-A-Lyzer Dialysis Cassettes, Thermo Fisher Scientific, Waltham, MA, USA) were immersed in 50 mM potassium phosphate buffer solution (pH 7.4) for 30 min (dialysis solution was exchanged three times). After dialysis, the samples were transferred from the cassette back to the glass tube, and the residual enzyme activity was assessed using testosterone as a marker substrate (200 μM final concentration). As the NADPH generating system was also dialyzed, it was again added to the incubations to initiate enzyme reaction. […] The samples were analyzed by HPLC.

[6] = set-up: method as in PMID 7937537; conditions: healthy volunteers; cited from earlier work
[7] = human, CYP3A4 enzyme, pH 7.4, probe nifedipine (200 µM), nifedipine oxidation
[8] = human, CYP3A4 enzyme, pH 7.4, probe nifedipine (200 µM), nifedipine oxidation, kinact/Ki (inactivation efficiency), nifedipine (NIF) as marker substrate, ratio of inactivation rate constant and inhibition constant
[9] = nifedipine (NIF) as marker substrate, ratio of inactivation rate constant and inhibition constant

T1 sequence (P08684 whole entry): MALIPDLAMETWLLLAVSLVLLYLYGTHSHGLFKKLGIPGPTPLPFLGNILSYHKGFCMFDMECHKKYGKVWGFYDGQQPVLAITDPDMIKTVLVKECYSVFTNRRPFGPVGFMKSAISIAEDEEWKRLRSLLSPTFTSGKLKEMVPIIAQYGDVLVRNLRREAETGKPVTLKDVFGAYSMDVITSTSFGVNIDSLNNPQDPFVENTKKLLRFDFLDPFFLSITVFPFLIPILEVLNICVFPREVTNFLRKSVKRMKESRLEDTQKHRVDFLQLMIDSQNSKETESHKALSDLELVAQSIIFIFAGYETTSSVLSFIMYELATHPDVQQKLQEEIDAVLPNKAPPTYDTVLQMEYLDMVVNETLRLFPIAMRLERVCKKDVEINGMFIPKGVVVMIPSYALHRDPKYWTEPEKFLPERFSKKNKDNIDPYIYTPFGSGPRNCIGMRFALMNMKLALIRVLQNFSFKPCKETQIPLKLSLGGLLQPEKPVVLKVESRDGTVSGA

| Structure (SMILES) | IC50 [1] | Ki [1] | kinact [1, 7] | kinact/KI [1, 8] | kinact/Ki (inactivation efficiency) [1, 9] | inhibition of CYP3A4 [2] | IC50 [2] | Ki [2] | kinact [2] | kinact/Ki [2] | oral bioavailability of paclitaxel [3] | kinact ([1]; human, pH 7.4) | kinact/Ki (inactivation efficiency) ([1]; human, pH 7.4) | kinact/KI ([1]; human, pH 7.4, kinact/Ki (inactivation efficiency)) | AUC and peak serum concentration (Cmax) of nitrofurantoin [4] | reduction of enzyme activity [5] | increase in AUC of cerivastatin [6] |
| --- | --- | --- | --- | --- | --- | --- | --- | --- | --- | --- | --- | --- | --- | --- | --- | --- | --- |
| COc1ccc(-c2cc(=O)c3c(O)cc(O)cc3o2)cc1 [acacetin] | 7.5 ± 2.7 µM | 12.1 ± 5.6 µM | 0.00167 s⁻¹ | ~167 M⁻¹ s⁻¹ | 130 M⁻¹ s⁻¹ | statistically significant inhibition | 10.9 ± 0.3 µM | 6 ± 3 µM | 0.036 ± 0.006 min⁻¹ | 100 M⁻¹ s⁻¹ |  |  |  |  |  |  |  |
| O=c1cc(-c2ccc(O)cc2)oc2cc(O)cc(O)c12 [apigenin] |  |  |  |  |  | statistically significant inhibition |  |  |  |  | increase in oral bioavailability of paclitaxel |  |  |  |  |  |  |
| O=c1cc(-c2ccccc2)oc2cc(O)cc(O)c12 [chrysin, 5,7-dihydroxy-flavone] | 2.5 ± 0.6 µM | 2.4 ± 1 µM |  |  |  | statistically significant inhibition | 0.6 ± 0.5 µM | 0.6 ± 0.3 µM | 0.065 ± 0.005 min⁻¹ | 1800 M⁻¹ s⁻¹ |  | 0.00117 s⁻¹ | 483 M⁻¹ s⁻¹ | 500 M⁻¹ s⁻¹ | significantly increased | approximately 99% |  |
| CC[C@H]1OC(=O)[C@H](C)[C@@H](O[C@H]2C[C@@](C)(OC)[C@@H](O)[C@H](C)O2)[C@H](C)[C@@H](O[C@@H]2O[C@H](C)C[C@H](N(C)C)[C@H]2O)[C@](C)(O)C[C@@H](C)C(=O)[C@H](C)[C@@H](O)[C@]1(C)O [erythromycin] |  |  |  |  |  |  |  |  |  |  |  |  |  |  |  |  | 21% |
| O=C1CC(c2ccccc2)Oc2cc(O)cc(O)c21 (centres unmarked) [pinocembrin, 5,7-dihydroxy-flavanone] | 4.3 ± 1.1 µM | 5.1 ± 1.6 µM | 0.000667 s⁻¹ | ~167 M⁻¹ s⁻¹ | 130 M⁻¹ s⁻¹ | statistically significant inhibition | 5 ± 0.6 µM | 1.2 ± 0.3 µM | 0.018 ± 0.001 min⁻¹ | 250 M⁻¹ s⁻¹ |  |  |  |  |  |  |  |
